Like-named read-outs stand apart in the source and are kept apart here.
Key:
C. albicans CaCi-2 [1] = test: CaCi-2 growth inhibition in the presence of 8 μg/ml fluconazole (Alamar Blue); format: cell-based, Candida albicans
Procedure: Fluconazole was obtained from Sequoia Research Products, Ltd. and prepared in a 2 mg/ml stock solution in phosphate buffered saline (PBS). […] PBS (Catalog No. 21-040-CV) without calcium and magnesium was obtained from Cellgro. Penicillin/Streptomycin (Pen/Strep) was obtained from Gibco and prepared 100× in PBS.
RPMI medium (1×) was prepared by dissolving 10.4 g powdered medium in 800 ml water. A buffer of 34.52 g MOPS was added. While stirring, pH was adjusted to 7.0 with 10 N NaOH. Next, 10 ml uridine solution and 50 ml glucose solution were added. The final volume was adjusted to 1000 ml, and filter sterilized.
The following yeast strains were used in this study: C. albicans CaCi-2. Fungal inoculum was prepared as follows: 500 μl of strain was inoculated from cryopreserved stock into a 250-ml shaker flask containing 30 ml growth medium and shaken overnight at 30° C. The optical density (OD 600) of 1 ml fungal culture in a cuvette was read using a standard optical density reader (Eppendorf BioPhotometer Plus), with growth medium as a background blank. The desired volume of fungal inoculums was diluted to desired volume of fungal inoculums according to the following formula: (1/OD measured)×(Desired Final Volume of Inoculum)×0.3=Volume of fungal culture (μl) to add to desired volume of growth medium. When added to media in wells, this yields a calculated starting OD of the fungal inoculum of 0.00015.
Fluconazole stock solution was added to the fungal inoculum to achieve 8 μg/ml. Pen/Strep was added to the media to a 1% concentration (v/v). A Thermo Combi nL was used to dispense 20 μl/well of assay media into all wells. Geldanamycin was dispensed in positive control wells using Thermo Combi nL for a final concentration of 3 μM. Then, 100 nl of test compound was pinned from compound plates into assay plates using a CyBi-Well pin tool. A further 20 μl/well of culture was dispensed into the assay media in all wells. The plates were incubated in a humidified (90% humidity) Liconic incubator at 37° C. without agitation for 48 hours. Alamar Blue was diluted 1:40 in Ca/Mg-free PBS. To all plates, […] of the diluted Alamar Blue was added to the plates to a final dilution factor of 1:200. The plates were incubated for an additional 2 hours. Then, Relative Fluorescence Intensity (RFU) of each well was read on standard plate reader as a measure of relative fungal growth.

C. albicans CaCi-8 = test: microbe, parasite or virus in culture; format: cell-based, Candida albicans
Procedure: This subset was re-subjected to the primary assay and was also tested concurrently in two secondary assays. Secondary assay 1 measured chemosensitization of the more resistant CaCi-8 strain. Secondary assay 2 eliminated anything with inherently antifungal activity. […] A final assay (secondary assay 3) was incorporated to discard any compound displaying toxicity to mammalian fibroblasts. […] This screening campaign is also illustrated in FIG. 3B.
Those that inhibited growth in the resistant strain were also tested for toxicity against Candida in the absence of fluconazole and for toxicity against mammalian cells using a fluorescence reporter assay. The positive control for screening in the Candida and mammalian cell assays was the Hsp90 inhibitor geldanamycin (acting in concert with fluconazole; FIG. 4). Compounds that passed these four hurdles were binned through use of a Saccharomyces assay to determine whether the mechanism of action might be through the Hsp90 pathway, the calcineurin pathway, or an uncategorized mechanism.

C. albicans CaCi-2 [2] = test: Secondary single-agent (no-fluconazole) activity assay; format: cell-based, Candida albicans; conditions: in the absence of fluconazole; read-out: Target Potency (μM) Mean ± S.E.M CaCi-2^b IC50
Procedure: Clear, flat-bottom, black, 384-well plates were obtained from Corning. […] Pen/Strep was obtained from Gibco and prepared 100× in PBS. Fluconazole was obtained from Sigma and prepared in 2 mg/ml stock solution in PBS. Alamar Blue was obtained from Biosource International (Catalog No. DAL1100). Phosphate buffered solution (PBS) without calcium and magnesium was obtained from Cellgro.
Fungal inoculum was prepared as follows: 500 μl of yeast was inoculated from cryopreserved stock into a 250-ml shaker flask containing 30 ml growth medium and shaken overnight (16 hours) at 30° C. The culture was spun down, and the broth was poured off and washed with RPMI medium. The culture was spun down again, and the broth was poured off and resuspended in RPMI medium. The OD 600 of 1 ml of fungal culture in a cuvette was read using a standard optical density reader with growth medium as a background blank. The desired volume of fungal inoculum was diluted to starting OD of the fungal inoculum of 0.00015 A600.
Pen/Strep was added to the media to a final 1% concentration. A Combi NL (Thermo) was used to dispense 20 μl/well of assay media into all wells. Geldanamycin (1.5 mM) and fluconazole (0.2 mg/ml) were mixed for the positive control. Then, 80 nl of positive control solution was dispensed into the positive control wells using Thermo Combi nL for a final concentration of 3 μM geldanamycin and 8 μg/ml fluconazole. Then, 100 nl of test compound were pinned from the compound plates into assay plates using a CyBi-Well pin tool. A further 20 μl/well of RPMI synthetic defined medium culture was dispensed into 384-well, black plates. Fungal suspension (20 μl/well) was dispensed into all wells. The plates were incubated in a humidified (90% humidity) Liconic incubator at 37° C. without agitation for 48 hours. Alamar Blue Reagent was diluted 1:40 in Ca/Mg-free PBS. To all plates, 6.4 μl/well of the diluted Alamar Blue was added to the plates to a final dilution factor of 1:200. The plates were incubated for 2 hours at room temperature. Next, RFU of wells was read on a standard plate reader as a measure of relative fungal growth.

Plasma stability = conditions: % remaining in human plasma after a 5-hour incubation
Plasma protein binding = conditions: % bound in human plasma
[3] = 37° C., 48 hours, with 8 μg/mL (26 μM) fluconazole, average of at least three experiments
[4] = 37° C., 48 hours, with 8 μg/mL (26 μM) fluconazole, average of at least three experiments, read-out: CaCi-2 IC50
[5] = 37° C., 48 hours, with 8 μg/mL (26 μM) fluconazole, average of at least three experiments, read-out: CaCi-8 IC50
[6] = Table 12, read-out: CaCi-8 IC50 with 8 μg/ml fluconazole
[7] = in the presence of fluconazole, read-out: Target Potency (μM) Mean ± S.E.M CaCi-2^a IC50
[8] = in the presence of fluconazole, read-out: Target Potency (μM) Mean ± S.E.M CaCi-8^a IC50

| SMILES | CaCi-2 IC50 (μM) (C. albicans CaCi-2 [1]; [3]) | CaCi-8 IC50 (μM) (C. albicans CaCi-8; [3]) | IC50 (C. albicans CaCi-2 [1]; [4]) [µM] | IC50 (C. albicans CaCi-8; [5]) [µM] | further results |
| --- | --- | --- | --- | --- | --- |
| COC(=O)Cn1nc(-c2ccccc2)c2cccnc21 | inactive | inactive |  |  |  |
| COC(=O)Cn1nc(C(C)(C)C)c2ccccc21 | inactive | inactive |  |  |  |
| COC(=O)Cn1nc(C2CC2)c2ccccc21 | inactive | Inactive |  |  |  |
| COC(=O)Cn1nc(C2CCCCC2)c2ccccc21 |  |  | 2.3 ± 0.3 | 6 ± 1.7 |  |
| COC(=O)Cn1nc(-c2cnco2)c2ccccc21 | inactive | inactive |  |  |  |
| COC(=O)Cn1nc(-c2cscn2)c2ccccc21 |  | inactive | 12.9 ± 1.7 |  |  |
| COC(=O)Cn1nc(-c2cccc(C)c2)c2ccccc21 [CID 49835823] |  |  |  |  | IC50 (C. albicans CaCi-2 [1]; in the presence of fluconazole, read-out: CaCi-2 growth inhibition IC50): 0.65 µM; IC50 (C. albicans CaCi-8; [6]): 1.3 µM |
| COC(=O)Cn1nc(-c2cccc(F)c2)c2ccccc21 [CID 49835858] |  |  |  |  | IC50 (C. albicans CaCi-2 [1]; Table 12, read-out: CaCi-2 IC50 with 8 μg/ml fluconazole): 1.4 µM; IC50 (C. albicans CaCi-8; [6]): 2.1 µM |
| COC(=O)Cn1nc(-c2ccccc2)c2cc(F)ccc21 [Compound 5-F] |  | inactive | 11.2 ± 7.2 |  |  |
| COC(=O)Cn1nc(-c2ccccc2)c2cc(C)ccc21 [Compound 5-Me] |  |  | 5.2 ± 2.2 | 8.2 ± 3.2 |  |
| COC(=O)Cn1nc(-c2ccccc2)c2cc(OC)ccc21 [Compound 5-OMe] |  |  | 14.9 ± 5.7 | 22.1 ± 6.2 |  |
| COC(=O)Cn1nc(-c2ccccc2)c2ccc(C(F)(F)F)cc21 [Compound 6-CF3] | inactive | inactive |  |  |  |
| COC(=O)Cn1nc(-c2ccccc2)c2ccc(C#N)cc21 [Compound 6-CN] | inactive | inactive |  |  |  |
| COC(=O)Cn1nc(-c2ccccc2)c2ccc(Cl)cc21 [Compound 6-Cl] |  |  | 4 ± 1.3 | 8.4 ± 0.5 |  |
| COC(=O)Cn1nc(-c2ccccc2)c2ccc(C)cc21 [Compound 6-Me] |  | inactive | 5.9 ± 3.1 |  |  |
| COC(=O)Cn1nc(-c2ccccc2)c2ccc(OC)cc21 [Compound 6-OMe] |  |  | 9.5 ± 2.5 | 12.4 ± 0.5 |  |
| COC(=O)Cn1nc(-c2ccccc2)c2cccc(C(F)(F)F)c21 [Compound 7-CF3] | inactive | inactive |  |  |  |
| c1ccc(-c2n[nH]c3ccccc23)cc1 [Compound 300385] |  |  |  |  | IC50 (C. albicans CaCi-2 [1]; [7]): 3 µM; IC50 (C. albicans CaCi-2 [2]): > 26 µM; IC50 (C. albicans CaCi-8; [8]): > 26 µM; Plasma Stability (Plasma stability): > 99%; Plasma Protein Binding (Plasma protein binding): 98% |

| SMILES | CaCi-2 IC50 (μM) (C. albicans CaCi-2 [1]; [3]) | CaCi-8 IC50 (μM) (C. albicans CaCi-8; [3]) | IC50 (C. albicans CaCi-2 [1]; [4]) [µM] | IC50 (C. albicans CaCi-8; [5]) [µM] | further results |
| --- | --- | --- | --- | --- | --- |
| COC(=O)Cn1nc(-c2ccccc2)c2ccccc21 [Compound 3243873] |  |  |  |  | IC50 (C. albicans CaCi-2 [1]; [7]): 1.86 ± 0.99 µM; IC50 (C. albicans CaCi-2 [2]): > 26 µM; IC50 (C. albicans CaCi-8; [8]): 2.53 ± 1.13 µM; Plasma Stability (Plasma stability): < 1.0%; Plasma Protein Binding (Plasma protein binding): 96% |
| COC(=O)Cn1nc(-c2ccccc2)c2ccccc21 [Compound I-16, methyl 3-phenyl-1H-indazole acetate] |  |  |  |  | IC50 (C. albicans CaCi-2 [1]; Candida albicans, CACI2, Table 12, read-out: CaCi-2 IC50 with 8 μg/ml fluconazole): 1.8 µM |
| COC(=O)Cn1nc(-c2ccc(C)cc2)c2ccccc21 [Cpd 30] |  |  | 4.8 ± 2.5 | 19.5 ± 14.2 |  |
| COC(=O)Cn1nc(-c2ccc(OC)cc2)c2ccccc21 [Cpd 31] |  |  | 4.2 ± 1.7 | 14.1 ± 6.4 |  |
| COC(=O)Cn1nc(-c2ccc(F)cc2)c2ccccc21 [Cpd 32] |  |  | 8.3 ± 2.8 | 12.3 ± 3.9 |  |
| COC(=O)Cn1nc(-c2ccc(C(F)(F)F)cc2)c2ccccc21 [Cpd 33] | inactive | inactive |  |  |  |
| COC(=O)Cn1nc(-c2ccc(C#N)cc2)c2ccccc21 [Cpd 34] | inactive |  |  | 20.5 ± 0.3 |  |
| COC(=O)Cn1nc(-c2cccc(C)c2)c2ccccc21 [Cpd 35] |  |  | 1.1 ± 0.6 | 1.9 ± 0.9 |  |
| COC(=O)Cn1nc(-c2cccc(OC)c2)c2ccccc21 [Cpd 36] |  |  | 0.7 ± 0.3 | 1.5 ± 0.6 |  |
| COC(=O)Cn1nc(-c2cccc(N(C)C)c2)c2ccccc21 [Cpd 37] |  |  | 0.8 ± 0.1 | 2 ± 0.2 |  |
| COC(=O)Cn1nc(-c2cccc(F)c2)c2ccccc21 [Cpd 38] |  |  | 1.7 ± 0.4 | 4.2 ± 4.1 |  |
| COC(=O)Cn1nc(-c2ccccc2C)c2ccccc21 [Cpd 39] |  |  | 5.3 ± 0.5 | 7.8 ± 2.6 |  |
| COC(=O)Cn1nc(-c2ccccc2OC)c2ccccc21 [Cpd 40] |  |  | 9.3 ± 3.6 | 11.4 ± 1.7 |  |
| COC(=O)Cn1nc(-c2cc(OC)cc(OC)c2)c2ccccc21 [Cpd 41] | inactive | inactive |  |  |  |
| COC(=O)Cn1nc(-c2cccnc2)c2ccccc21 [drawing 228] |  | inactive |  |  | CaCi-2 IC50 (μM) (C. albicans CaCi-2 [1]): inactive |
| COC(=O)Cn1nc(-c2cncnc2)c2ccccc21 [drawing 229] | inactive |  |  | 21.1 ± 3.3 |  |
| CCc1nn(CC(=O)OC)c2ccccc12 [—Et] | inactive | inactive |  |  |  |
| COC(=O)Cn1ncc2ccccc21 [—H] | inactive | inactive |  |  |  |
